Test results as given in paper PMC2673050 (Journal of medicinal chemistry, 2009).

How the values were obtained:
Cytotoxicity testing [1] = format: cell-based; conditions: human, MCF7 breast cells
Cytotoxicity testing [2] = format: cell-based; conditions: human, LU lung cancer cells
Human QR2 = biological target: T1, Human QR2 (Homo sapiens, UniProt P16083); assay: QR2 inhibition assay; format: biochemical; conditions: for Increase in QR2 inhibitory potency relative to compound 1: relative to natural product 1
T1 sequence (P16083 1-231): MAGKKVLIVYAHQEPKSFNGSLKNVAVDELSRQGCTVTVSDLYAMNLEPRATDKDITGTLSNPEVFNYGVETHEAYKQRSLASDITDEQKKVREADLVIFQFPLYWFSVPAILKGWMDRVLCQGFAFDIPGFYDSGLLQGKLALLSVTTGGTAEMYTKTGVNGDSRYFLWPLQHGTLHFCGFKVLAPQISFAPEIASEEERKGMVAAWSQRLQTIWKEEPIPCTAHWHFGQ

aromatase (CYP19A1) = biological target: T2, aromatase (CYP19A1) (Homo sapiens, UniProt P11511); assay: Aromatase inhibition assay; format: biochemical
T2 sequence (P11511 1-503): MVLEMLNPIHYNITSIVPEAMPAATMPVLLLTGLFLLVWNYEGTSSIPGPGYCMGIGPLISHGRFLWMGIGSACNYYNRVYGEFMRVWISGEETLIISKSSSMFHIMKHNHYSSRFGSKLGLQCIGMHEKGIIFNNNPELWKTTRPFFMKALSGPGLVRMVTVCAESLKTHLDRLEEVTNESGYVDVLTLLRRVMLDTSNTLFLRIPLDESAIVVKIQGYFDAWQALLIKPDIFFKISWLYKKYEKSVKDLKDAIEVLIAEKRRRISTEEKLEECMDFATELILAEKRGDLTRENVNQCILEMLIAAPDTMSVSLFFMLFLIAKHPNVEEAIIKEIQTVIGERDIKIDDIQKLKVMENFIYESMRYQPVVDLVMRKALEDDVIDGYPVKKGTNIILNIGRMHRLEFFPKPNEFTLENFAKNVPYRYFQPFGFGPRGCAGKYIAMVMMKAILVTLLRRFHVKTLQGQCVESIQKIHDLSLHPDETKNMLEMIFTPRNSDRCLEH

[3] = system: four different cell lines; assay: Cytotoxicity, overall statement for four cell lines; format: cell-based
[4] = system: Salmonella typhimurium strain TM677; conditions: S. typhimurium TM677; cited from earlier work
[5] = system: mouse mammary gland organ culture (MMOC); conditions: cited from earlier work

Compound	IC50 at 72 h (Cytotoxicity testing [1]) [µM]	IC50 at 72 h (Cytotoxicity testing [2]) [µM]	Aromatase inhibitory activity (in words) (aromatase (CYP19A1))	also measured
Cc1cc(=O)[nH]c2c3c(ccc12)OCO3 [1a, 6-Methyl-[1,3]dioxolo[4,5-h]quinolin-8(9H)-one]	> 98.5	> 98.5	–	–
Cc1cc(=O)n(C)c2c3c(ccc12)OCO3 [1b, 6,9-Dimethyl-[1,3]dioxolo[4,5-h]quinolin-8(9H)-one]	> 92.1	> 92.1	–	Increase in QR2 inhibitory potency relative to compound 1 (Human QR2): more than 8 fold
Cc1cc(=O)[nH]c2ccccc12 [1c, 4-Methylquinolin-2(1H)-one]	> 126	> 126	inactive	QR2 inhibitory activity (in words) (Human QR2): inactive
Cc1cc(=O)n(C)c2ccccc12 [1d, 1,4-Dimethylquinolin-2(1H)-one]	> 116	> 116	inactive	Increase in QR2 inhibitory potency relative to compound 1 (Human QR2): approximately 3 fold
COc1cccc2c(C)cc(=O)[nH]c12 [1e, 8-Methoxy-4-methylquinolin-2(1H)-one]	> 106	> 106	not active	–
COc1cccc2c(C)cc(=O)n(C)c12 [1f, 8-Methoxy-1,4-dimethylquinolin-2(1H)-one]	> 98.5	> 98.5	–	Increase in QR2 inhibitory potency relative to compound 1 (Human QR2): approximately 10 fold
COc1ccc2c(C)cc(=O)[nH]c2c1OC [1g, 7,8-Dimethoxy-4-methylquinolin-2(1H)-one]	> 91.3	> 91.3	–	–
COc1ccc2c(C)cc(=O)n(C)c2c1OC [1h, 7,8-Dimethoxy-1,4-dimethylquinolin-2(1H)-one]	> 85.8	> 85.8	–	–
COc1cc(OC)c2[nH]c(=O)cc(C)c2c1 [1i, 6,8-Dimethoxy-4-methylquinolin-2(1H)-one]	> 91.3	> 91.3	inactive	–
COc1cc(OC)c2c(c1)c(C)cc(=O)n2C [1j, 6,8-Dimethoxy-1,4-dimethylquinolin-2(1H)-one]	> 85.8	> 85.8	submicromolar range	–
COc1ccc(OC)c2c(C)cc(=O)[nH]c12 [1k, 5,8-Dimethoxy-4-methylquinolin-2(1H)-one]	> 91.2	> 91.2	–	–
COc1ccc(OC)c2c1c(C)cc(=O)n2C [1l, 5,8-Dimethoxy-1,4-dimethylquinolin-2(1H)-one]	> 85.7	> 85.7	submicromolar range	Increase in QR2 inhibitory potency relative to compound 1 (Human QR2): 10 fold
COc1cc2c(C)cc(=O)[nH]c2c(OC)c1OC [1m, 6,7,8-Trimethoxy-4-methylquinolin-2(1H)-one]	> 80.3	> 80.3	–	–
COc1cc2c(C)cc(=O)n(C)c2c(OC)c1OC [1n, 6,7,8-Trimethoxy-1,4-dimethylquinolin-2(1H)-one]	> 76	> 76	–	–
COc1cc(OC)c2[nH]c(=O)cc(C)c2c1OC [1o, 5,6,8-Trimethoxy-4-methylquinolin-2(1H)-one]	–	–	–	Cytotoxicity (in words) [3]: low degree of cytotoxicity
COc1cc(OC)c2c(c(C)cc(=O)n2C)c1OC [1p, 5,6,8-Trimethoxy-1,4-dimethylquinolin-2(1H)-one]	> 76	–	–	Cytotoxicity (in words) [3]: low degree of cytotoxicity
COc1c(OC)c(OC)c2c(C)cc(=O)[nH]c2c1OC [1q, 5,6,7,8-Tetramethoxy-4-methylquinolin-2(1H)-one]	> 71.7	> 71.7	–	QR2 inhibitory activity (in words) (Human QR2): completely inactive
COc1c(OC)c(OC)c2c(c(C)cc(=O)n2C)c1OC [1r, 5,6,7,8-Tetramethoxy-1,4-dimethylquinolin-2(1H)-one]	> 68.2	> 68.2	submicromolar range	QR2 inhibitory activity (in words) (Human QR2): completely inactive
COc1cc(=O)n(C)c2c3c(ccc12)OCO3 [compound 1, 6-Methoxy-9-methyl-[1,3]dioxolo[4,5-h]quinolin-8(9H)-one]	> 85.8	> 85.8	–	Inhibition of mutagenicity induced by 7,12-dimethylbenz[a]anthracene (DMBA) [4]: inhibit mutagenicity; Inhibition of formation of DMBA-induced preneoplastic lesions [5]: inhibition of the formation of DMBA-induced preneoplastic lesions
Cc1cc(=O)n(C)c2c1C(=O)C=CC2=O [compound 12]	–	–	–	Cytotoxicity (in words) [3]: low degree of cytotoxicity
